Legend:
Conditions in all cases: exposure time 48 h
[1] = test system: Caenorhabditis elegans N2; assay: mean nematode size ln(EXT) after 48 h, plate-adjusted (DMSO control set to 6) (ln(EXT), control-adjusted); higher = larger nematodes / less growth inhibition
Outline: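 In K-medium with killed OP50, 1% DMSO and 0.5–200 µM chemical, synchronised N2 L1 larvae of C. elegans (50 per well) grew for 48 h at 20°C. Extinction was read for every worm on the Biosort, with debris removed by a growth model. Natural-log values averaged per well gave mean size, which was corrected per plate by subtracting the vehicle control mean and adding 6.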

[2] = test system: Caenorhabditis elegans N2; assay: AC50 for larval growth inhibition (Hill fit); higher = less potent
Outline: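 C. elegans N2 L1 larvae, synchronised and plated at 50 per well in 96-well plates, were exposed for 48 h at 20°C to 0.5–200 µM chemical in K-medium with killed OP50 and 1% DMSO. Log-transformed extinction from a COPAS Biosort served as worm size, averaged per well. Wells containing at least 10 worms entered the fit. A constrained Hill fit by weighted genetic-algorithm regression yielded the AC50, censored when out of range.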

[3] = test system: Caenorhabditis elegans N2; assay: lowest effective concentration for larval growth inhibition (size below effect threshold); higher = less potent
Outline: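 Log-transformed well means of per-worm extinction, read as size on a Biosort, came from 50 C. elegans N2 L1 larvae per 96-well grown 48 h at 20°C in K-medium with killed bacteria, 1% DMSO and 0.5 to 200 µM chemical. The lowest effective concentration is the first dose at which the plate-adjusted mean size is below the threshold and stays below it at every higher dose. The threshold is 5.665.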

Row | Compound | mean nematode size ln(EXT) (ln) ([1]; 0.5 µM) | mean nematode size ln(EXT) (ln) ([1]; 1 µM) | mean nematode size ln(EXT) (ln) ([1]; 5 µM) | mean nematode size ln(EXT) (ln) ([1]; 10 µM) | mean nematode size ln(EXT) (ln) ([1]; 50 µM) | mean nematode size ln(EXT) (ln) ([1]; 100 µM) | mean nematode size ln(EXT) (ln) ([1]; 200 µM) | AC50 for larval growth inhibition [2] [µM] | lowest effective concentration [3] [µM]
1 | CNC(=O)ON=C(C)SC [Methomyl] | 5.94 | 5.95 | 6.08 | 5.93 | 5.19 | 4.65 | 3.39 | 91.6 | 50
2 | COc1ccc(C(c2ccc(OC)cc2)C(Cl)(Cl)Cl)cc1 [Methoxychlor] | 5.6 | 5.46 | 5.58 | 5.19 | 4.71 | 4.01 | 3.61 | 39 | ≤ 0.5
3 | COc1cccc(C(=O)NN(C(=O)c2cc(C)cc(C)c2)C(C)(C)C)c1C [Methoxyfenozide] | 6.16 | 6.1 | 6.05 | 5.9 | 6 | 6.01 | 4.43 | 195 | 200
4 | COC(=O)c1ccccc1N [Methyl 2-aminobenzoate] | 5.88 | 5.87 | 5.91 | 5.88 | 5.8 | 5.7 | 5.64 | > 200 | 200
5 | CN=C=S [Methyl isothiocyanate] | 6.14 | 6.37 | 6.06 | 6.02 | 5.96 | 6.02 | 5.06 | > 200 | 200
6 | CCCCCCCCCCCC(=O)OC [Methyl laurate] | 5.77 | 5.99 | 5.92 | 5.94 | 5.74 | 5.82 | 4.96 | > 200 | 200
7 | CCCCCCCC(=O)OC [Methyl octanoate] | 5.88 | 5.84 | 5.85 | 5.9 | 5.74 | 5.88 | 5.52 | > 200 | 200
8 | COC(=O)c1ccccc1O [Methyl salicylate] | 5.89 | 5.86 | 5.82 | 5.75 | 5.81 | 5.78 | 5.26 | > 200 | 200
9 | N#CSCSC#N [Methylene bis(thiocyanate)] | 5.41 | 5.47 | 5.22 | 5.16 | 3.74 | 3.85 | 3.4 | 17.5 | ≤ 0.5
10 | CCc1cccc(C)c1N(C(=O)CCl)C(C)COC (centres undefined) [Metolachlor] | 5.64 | 5.7 | 5.74 | 5.81 | 5.63 | 5.63 | 5.64 | > 200 | 50
11 | COC(=O)C=C(C)OP(=O)(OC)OC [Mevinphos] | 6.16 | 6.21 | 6.22 | 6.29 | 4.99 | 5.74 | 3.88 | 156 | 200
